# Assay: Binding affinity to Influenza A virus PA endonuclease I39T mutant assessed as dissociation constant by MST assay
row,Structure (SMILES),Kd
1,COc1cnccc1CCNC(=O)c1nc(-c2ccccc2C(F)(F)F)[nH]c(=O)c1O,32 nM
2,O=C1c2c(O)c(=O)ccn2N([C@@H]2c3ccccc3SCc3c2ccc(F)c3F)C2COCCN12 (stereo partly drawn),9300 nM
3,Nc1ncnc2c1ncn2CCNC(=O)c1nc(-c2ccccc2C(F)(F)F)[nH]c(=O)c1O,16 nM

# From ChEMBL document CHEMBL5331099, “Chemical scaffold recycling: Structure-guided conversion of an HIV integrase inhibitor into a potent influenza virus RNA-dependent RNA polymerase inhibitor designed to minimize resistance potential” (Eur J Med Chem, 2023)
